#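 Tested at 5 concentrations; 48 h exposure; 96-well plates; endpoints linearly interpolated, else capped at highest concentration. At the GI50, growth is halved.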 The source made the active and inactive calls. Cut-off read from the data, not from the text of the source: active = GI50 up to about 1.1 µM and inactive = higher.
# What was measured:
# Assay in all cases: NCI tumour cell line growth inhibition, 48 h
# 786-0 = tested on: 786-0
# A498 = tested on: A498
# A549 = tested on: A549
# ACHN = tested on: ACHN
# CAKI-1 = tested on: CAKI-1
# CCRF-CEM = tested on: CCRF-CEM
# DLD-1 = tested on: DLD-1
# DMS-114 = tested on: DMS-114
# DMS-273 = tested on: DMS-273
# EKVX = tested on: EKVX
# HCC 2998 = tested on: HCC 2998
# HCT-116 = tested on: HCT-116
# HCT-15 = tested on: HCT-15
# HL-60 = tested on: HL-60
# HOP-18 = tested on: HOP-18
# HOP-62 = tested on: HOP-62
# HOP-92 = tested on: HOP-92
# HT-29 = tested on: HT-29
# IGROV-1 = tested on: IGROV-1
# K562 = tested on: K562
# KM-20L2 = tested on: KM-20L2
# KM12 = tested on: KM12
# LOX IMVI = tested on: LOX IMVI
# LXFL 529 = tested on: LXFL 529
# M14 = tested on: M14
# M19-MEL = tested on: M19-MEL
# MOLT-4 = tested on: MOLT-4
# Malme-3M = tested on: Malme-3M
# NCI-H226 = tested on: NCI-H226
# NCI-H23 = tested on: NCI-H23
# NCI-H460 = tested on: NCI-H460
# NCI-H522 = tested on: NCI-H522
# OVCAR-3 = tested on: OVCAR-3
# OVCAR-4 = tested on: OVCAR-4
# OVCAR-5 = tested on: OVCAR-5
# OVCAR-8 = tested on: OVCAR-8
# RPMI-8226 = tested on: RPMI-8226
# RXF 393 = tested on: RXF 393
# RXF 631 = tested on: RXF 631
# SF-268 = tested on: SF-268
# SF-295 = tested on: SF-295
# SF-539 = tested on: SF-539
# SK-MEL-28 = tested on: SK-MEL-28
# SK-MEL-2 = tested on: SK-MEL-2
# SK-MEL-5 = tested on: SK-MEL-5
# SN12C = tested on: SN12C
# SNB-19 = tested on: SNB-19
# SNB-75 = tested on: SNB-75
# SNB-78 = tested on: SNB-78
# SW-620 = tested on: SW-620
# TK-10 = tested on: TK-10
# U-251 = tested on: U-251
# UACC-257 = tested on: UACC-257
# UACC-62 = tested on: UACC-62
# UO-31 = tested on: UO-31
# COLO 205 = tested on: COLO 205
# SK-OV-3 = tested on: SK-OV-3
# SR = tested on: SR
compound,measurement,setting,value
O=C(CCC(=O)Nc1ccc(Cl)c(Cl)c1)CC(=O)c1ccc2ccccc2c1,GI50,786-0,> 100 µM (inactive)
same,GI50,A498,> 100 µM (inactive)
same,GI50,A549,> 100 µM (inactive)
same,GI50,ACHN,39.8 µM (inactive)
same,GI50,CAKI-1,83 µM (inactive)
same,GI50,CCRF-CEM,> 100 µM (inactive)
same,GI50,DLD-1,> 100 µM (inactive)
same,GI50,DMS-114,86.5 µM (inactive)
same,GI50,DMS-273,62.4 µM (inactive)
same,GI50,EKVX,> 100 µM (inactive)
same,GI50,HCC 2998,> 100 µM (inactive)
same,GI50,HCT-116,> 100 µM (inactive)
same,GI50,HCT-15,39.8 µM
same,GI50,HL-60,> 100 µM (inactive)
same,GI50,HOP-18,> 100 µM (inactive)
same,GI50,HOP-62,> 100 µM (inactive)
same,GI50,HOP-92,> 100 µM (inactive)
same,GI50,HT-29,93.8 µM (inactive)
same,GI50,IGROV-1,> 100 µM (inactive)
same,GI50,K562,17.1 µM (inactive)
same,GI50,KM-20L2,25.9 µM (inactive)
same,GI50,KM12,82 µM (inactive)
same,GI50,LOX IMVI,> 100 µM (inactive)
same,GI50,LXFL 529,42.7 µM (inactive)
same,GI50,M14,> 100 µM (inactive)
same,GI50,M19-MEL,> 100 µM (inactive)
same,GI50,MOLT-4,48.3 µM (inactive)
same,GI50,Malme-3M,> 100 µM (inactive)
same,GI50,NCI-H226,> 100 µM (inactive)
same,GI50,NCI-H23,> 100 µM (inactive)
same,GI50,NCI-H460,> 100 µM (inactive)
same,GI50,NCI-H522,89.5 µM (inactive)
same,GI50,OVCAR-3,> 100 µM (inactive)
same,GI50,OVCAR-4,> 100 µM (inactive)
same,GI50,OVCAR-5,> 100 µM (inactive)
same,GI50,OVCAR-8,> 100 µM (inactive)
same,GI50,RPMI-8226,39.8 µM (inactive)
same,GI50,RXF 393,> 100 µM (inactive)
same,GI50,RXF 631,> 100 µM (inactive)
same,GI50,SF-268,> 100 µM (inactive)
same,GI50,SF-295,> 100 µM (inactive)
same,GI50,SF-539,> 100 µM (inactive)
same,GI50,SK-MEL-28,> 100 µM (inactive)
same,GI50,SK-MEL-2,41.8 µM (inactive)
same,GI50,SK-MEL-5,> 100 µM (inactive)
same,GI50,SN12C,> 100 µM (inactive)
same,GI50,SNB-19,> 100 µM (inactive)
same,GI50,SNB-75,26.3 µM (inactive)
same,GI50,SNB-78,> 100 µM (inactive)
same,GI50,SW-620,> 100 µM (inactive)
same,GI50,TK-10,> 100 µM (inactive)
same,GI50,U-251,> 100 µM (inactive)
same,GI50,UACC-257,> 100 µM (inactive)
same,GI50,UACC-62,17.2 µM (inactive)
same,GI50,UO-31,> 100 µM (inactive)
O=C(/C=C1\Nc2ccccc2C(=O)N1c1ccccc1Cl)c1ccccc1,GI50,786-0,> 100 µM (inactive)
same,GI50,A498,> 100 µM (inactive)
same,GI50,A549,87.5 µM (inactive)
same,GI50,ACHN,> 100 µM (inactive)
same,GI50,CAKI-1,> 100 µM (inactive)
same,GI50,CCRF-CEM,> 100 µM (inactive)
same,GI50,COLO 205,> 100 µM (inactive)
same,GI50,DLD-1,> 100 µM (inactive)
same,GI50,DMS-114,86.3 µM (inactive)
same,GI50,DMS-273,> 100 µM (inactive)
same,GI50,EKVX,> 100 µM (inactive)
same,GI50,HCC 2998,> 100 µM (inactive)
same,GI50,HCT-116,36.5 µM (inactive)
same,GI50,HCT-15,> 100 µM
same,GI50,HL-60,47 µM (inactive)
same,GI50,HOP-18,> 100 µM (inactive)
same,GI50,HOP-62,> 100 µM (inactive)
same,GI50,HOP-92,17.9 µM (inactive)
same,GI50,HT-29,64.7 µM (inactive)
same,GI50,IGROV-1,> 100 µM (inactive)
same,GI50,K562,87.5 µM (inactive)
same,GI50,KM-20L2,> 100 µM (inactive)
same,GI50,KM12,84.1 µM (inactive)
same,GI50,LOX IMVI,> 100 µM (inactive)
same,GI50,LXFL 529,> 100 µM (inactive)
same,GI50,M14,> 100 µM (inactive)
same,GI50,M19-MEL,> 100 µM (inactive)
same,GI50,MOLT-4,76.4 µM (inactive)
same,GI50,Malme-3M,> 100 µM (inactive)
same,GI50,NCI-H226,> 100 µM (inactive)
same,GI50,NCI-H23,> 100 µM (inactive)
same,GI50,NCI-H460,> 100 µM (inactive)
same,GI50,NCI-H522,> 100 µM (inactive)
same,GI50,OVCAR-3,88.9 µM (inactive)
same,GI50,OVCAR-4,67.5 µM (inactive)
same,GI50,OVCAR-5,> 100 µM (inactive)
same,GI50,OVCAR-8,> 100 µM (inactive)
same,GI50,RXF 393,> 100 µM (inactive)
same,GI50,RXF 631,> 100 µM (inactive)
same,GI50,SF-268,> 100 µM (inactive)
same,GI50,SF-295,> 100 µM (inactive)
same,GI50,SF-539,> 100 µM (inactive)
same,GI50,SK-MEL-28,> 100 µM (inactive)
same,GI50,SK-MEL-2,> 100 µM (inactive)
same,GI50,SK-MEL-5,> 100 µM (inactive)
same,GI50,SK-OV-3,> 100 µM (inactive)
same,GI50,SN12C,> 100 µM (inactive)
same,GI50,SNB-19,> 100 µM (inactive)
same,GI50,SNB-75,32.7 µM (inactive)
same,GI50,SNB-78,> 100 µM (inactive)
same,GI50,SR,> 100 µM (inactive)
same,GI50,SW-620,> 100 µM (inactive)
same,GI50,TK-10,> 100 µM (inactive)
same,GI50,U-251,> 100 µM (inactive)
same,GI50,UACC-257,> 100 µM (inactive)
same,GI50,UACC-62,> 100 µM (inactive)
same,GI50,UO-31,> 100 µM (inactive)

# — ChEMBL document CHEMBL1201862, “PubChem BioAssay data set” (2004)
